Measured values reported in ChEMBL document CHEMBL1137053, “QSAR modeling of the MAO inhibitory activity of xanthones derivatives” (Bioorg Med Chem Lett, 2004).

Molecular target: T1, Amine oxidase [flavin-containing] A (Homo sapiens, UniProt P21397)
T1 sequence (P21397 whole entry): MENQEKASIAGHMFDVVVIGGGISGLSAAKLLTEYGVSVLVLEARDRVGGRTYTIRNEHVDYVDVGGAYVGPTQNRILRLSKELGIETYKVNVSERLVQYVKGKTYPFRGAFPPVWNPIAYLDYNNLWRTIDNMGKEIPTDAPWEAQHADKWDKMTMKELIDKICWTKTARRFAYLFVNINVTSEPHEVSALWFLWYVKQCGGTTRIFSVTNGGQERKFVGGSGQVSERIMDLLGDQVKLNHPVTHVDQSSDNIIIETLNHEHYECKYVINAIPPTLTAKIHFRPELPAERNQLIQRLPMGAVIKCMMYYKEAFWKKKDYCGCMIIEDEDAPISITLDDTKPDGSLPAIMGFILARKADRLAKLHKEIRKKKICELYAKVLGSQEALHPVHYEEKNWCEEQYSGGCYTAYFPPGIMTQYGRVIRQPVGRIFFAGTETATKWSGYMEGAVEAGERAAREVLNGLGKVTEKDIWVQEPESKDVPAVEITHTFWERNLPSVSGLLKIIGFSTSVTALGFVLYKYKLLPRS
Assay: Concentration required to inhibit monoamine oxidase activity by 50%

Compound | IC50 [µM]
CC(C)=CCc1cc(O)c2oc3c(O)cccc3c(=O)c2c1O | 3.3
COc1c(O)cc2oc3c(O)cccc3c(=O)c2c1O | 2.7
COc1c(O)cc2oc3c(OC)cccc3c(=O)c2c1O | 51
COc1cc2oc3c(OC)cccc3c(=O)c2c(OC)c1OC | 37
Cc1c(O)c(Br)c2oc3ccccc3c(=O)c2c1O | 14.9
O=c1c2c(O)cc(O)cc2oc2ccc(O)c(O)c12 | 24
CC(C)=CCC/C(C)=C\Cc1c(O)cc(O)c2c(=O)c3cccc(O)c3oc12 | 37
O=c1c2cc(O)c(O)cc2oc2cc(O)cc(O)c12 | 25
COc1c(O)cc2oc3c(OC)c(O)ccc3c(=O)c2c1O | 32
CC(C)=CCc1cc(O)c2c(=O)c3cccc(O)c3oc2c1O | 40
O=c1c2cc(O)ccc2oc2cc(O)cc(O)c12 | 8
Cc1c(O)c(Cl)c2oc3ccccc3c(=O)c2c1O | 27
O=c1c2cccc(O)c2oc2cc(O)cc(O)c12 | 3.8
COc1cc(O)c2oc3c(C)ccc(OC)c3c(=O)c2c1 | 24
COc1cc(O)c2c(=O)c3c(O)ccc(O)c3oc2c1 [BELLIDIFOLIN] | 0.66
COc1cc(O)c2c(=O)c3c(OC)c(OC)ccc3oc2c1 [DECUSSATIN] | 19
O=c1c2c(O)cc(O)cc2oc2c(O)ccc(O)c12 [DEMETHYLBELLIDIFOLIN] | 13
O=c1c2ccccc2oc2ccccc12 [XANTHONE] | 0.84

Other lines, results leading:

IC50 [µM] | Compound
29 | COc1cc(O)c2c(=O)c3cccc(OC)c3oc2c1
23 | COc1cccc2c(=O)c3ccc(O)cc3oc12
0.73 | O=c1c2cccc(O)c2oc2cccc(O)c12
4.5 | O=c1c2ccc(O)cc2oc2c(O)cccc12
65 | COc1c(O)ccc2c(=O)c3ccccc3oc12
3.8 | O=c1c2ccccc2oc2ccc(O)cc12
31 | COc1ccc2c(=O)c3ccccc3oc2c1OC
36 | COc1ccc2c(=O)c3cccc(OC)c3oc2c1
0.18 | COc1ccc2c(=O)c3ccccc3oc2c1
58 | COc1cc(OC)c2c(=O)c3cccc(OC)c3oc2c1
5.3 | COc1ccc2oc3ccccc3c(=O)c2c1
18 | COc1ccc2c(=O)c3ccccc3oc2c1O
51 | COc1cccc2oc3c(O)cccc3c(=O)c12
20.2 | COc1cc(OC)c2c(=O)c3ccccc3oc2c1
0.31 | O=c1c2ccccc2oc2cccc(O)c12
30 | COc1cccc2c(=O)c3ccccc3oc12
0.11 | COc1cc(O)c2c(=O)c3ccccc3oc2c1
1.3 | O=c1c2ccccc2oc2c(O)cccc12
4.3 | Cc1c(O)cc(O)c2c(=O)c3ccccc3oc12
0.04 | COc1cc(O)c2c(=O)c3cccc(O)c3oc2c1
0.9 | COc1cccc2oc3ccccc3c(=O)c12
1.1 | O=c1c2ccccc2oc2cc(O)ccc12
3.7 | Cc1c(O)cc2oc3ccccc3c(=O)c2c1O
8.5 | COc1cc(O)c2c(=O)c3c(O)c(O)ccc3oc2c1 [GENTIAKOCHIANIN]
